≈ marks a conversion by molar mass, not a printed value. Calls of active or inactive are those of the source. The rule behind the calls is not given here.
Assays:
Conditions in all cases: time 12-16 hrs
Staphylococcus aureus [1] = experiment: Antibacterial activity against the Staphylococcus aureus 16339 incubated for 12 to 16 hrs by paper disc diffusion assay; format: functional
Staphylococcus aureus [2] = experiment: Antibacterial activity against Staphylococcus aureus ATCC 29213 assessed as inhibition on the growth incubated for 12 to 16 hrs by paper disc diffusion assay; format: functional, organism-based
Acinetobacter baumannii = experiment: Antibacterial activity against Acinetobacter baumannii assessed as inhibition on the growth incubated for 12 to 16 hrs by paper disc diffusion assay; format: functional, organism-based
Klebsiella pneumoniae = experiment: Antibacterial activity against Klebsiella pneumoniae assessed as inhibition on the growth incubated for 12 to 16 hrs by paper disc diffusion assay; format: functional, organism-based
Micrococcus luteus = experiment: Antibacterial activity against Micrococcus luteus assessed as inhibition on the growth incubated for 12 to 16 hrs by paper disc diffusion assay; format: functional, organism-based
Staphylococcus aureus [3] = experiment: Antibacterial activity against methicillin-resistant Staphylococcus aureus ATCC 43300 assessed as inhibition on the growth incubated for 12 to 16 hrs by paper disc diffusion assay; format: functional, organism-based
Escherichia coli = experiment: Antibacterial activity against Escherichia coli assessed as inhibition on the growth incubated for 12 to 16 hrs by paper disc diffusion assay; format: functional, organism-based
Enterococcus faecalis = experiment: Antibacterial activity against Enterococcus faecalis assessed as inhibition on the growth incubated for 12 to 16 hrs by paper disc diffusion assay; format: functional, organism-based
Pseudomonas aeruginosa = experiment: Antibacterial activity against Pseudomonas aeruginosa assessed as inhibition on the growth incubated for 12 to 16 hrs by paper disc diffusion assay; format: functional, organism-based

Row | SMILES | MIC (Staphylococcus aureus [1]) | inhibition (Staphylococcus aureus [2]) | inhibition (Acinetobacter baumannii) | inhibition (Klebsiella pneumoniae) | inhibition (Micrococcus luteus) | inhibition (Staphylococcus aureus [3]) | inhibition (Escherichia coli) | inhibition (Enterococcus faecalis) | inhibition (Pseudomonas aeruginosa)
1 | CN(C)[C@@H]1C(O)=C(C(N)=O)C(=O)[C@@]2(O)C(O)=C3C(=O)c4c(O)cccc4[C@@](C)(O)[C@H]3C[C@@H]12 [TETRACYCLINE] | 10 µg/mL (≈ 22.5 µM) |  |  |  |  |  |  |  | 
2 | C/C=C/C=C/C=C\c1ccccc1/C=C/C(=O)N[C@H](C)C(=O)N[C@@H]1COC(=O)[C@H](CC(=O)O)NC(=O)[C@H](CNC(=O)[C@@H](N)C(C)C)NC(=O)[C@H](C(C)C)NC(=O)[C@@H](CC(C)C)NC1=O | 890 µg/mL (≈ 997 µM) | inactive | inactive | inactive | inactive | inactive | inactive | inactive | inactive

Reference: ChEMBL document CHEMBL6182844, “LC-MS Guided Discovery and Biosynthetic Pathway of Coprisamides E-H, Cinnamic Acid-Containing Metabolites from the Marine Algae-Derived Streptomyces thermolineatus NAK03196” (2025)
